# Test results published in the supplement of paper PMC10307832.
# Columns and labels:
# Assay in all cases: relative viability (nuclei count vs DMSO), 5 days (fraction); higher = more cells survive
# [1] = compound: CCCS(=O)(=O)Nc1ccc(F)c(C(=O)c2c[nH]c3ncc(-c4ccc(Cl)cc4)cc23)c1F [Vemurafenib] + CCNC(=O)c1noc(-c2cc(C(C)C)c(O)cc2O)c1-c1ccc(CN2CCOCC2)cc1 [Luminespib] (partner 0.01 µM)
# Method in brief: (§1)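 Medians of duplicate plates are given as relative viability. That measure is the nuclei count in treated wells divided by the count in vehicle wells. Counts were taken on 4× images of lung cancer cell lines in 1536-well plates, 5 days after pin-tool dosing the day after seeding with one drug alone or a fixed anchor-drug dose plus five library-drug doses (not always all listed) in √10 steps.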
# [2] = compound: CCCS(=O)(=O)Nc1ccc(F)c(C(=O)c2c[nH]c3ncc(-c4ccc(Cl)cc4)cc23)c1F [Vemurafenib] + NC(=O)Nc1cc(-c2cccc(F)c2)sc1C(=O)N[C@H]1CCCNC1 [AZD7762] (partner 0.2 µM)
# Method in brief: as §1
# [3] = compound: COc1cccc2cc(-c3nc([C@H]4CC[C@H](C(=O)O)CC4)n4ncnc(N)c34)[nH]c12 [OSI-027] + CC1(C)CCC(c2ccc(Cl)cc2)=C(CN2CCN(c3ccc(C(=O)NS(=O)(=O)c4ccc(N[C@H](CCN5CCOCC5)CSc5ccccc5)c(S(=O)(=O)C(F)(F)F)c4)cc3)CC2)C1 [Navitoclax] (partner 0.5 µM)
# Method in brief: as §1
# [4] = compound: COc1cccc2cc(-c3nc([C@H]4CC[C@H](C(=O)O)CC4)n4ncnc(N)c34)[nH]c12 [OSI-027] + COc1cc2c(Oc3ccc(NC(=O)C4(C(=O)Nc5ccc(F)cc5)CC4)cc3F)ccnc2cc1OCCCN1CCOCC1 [Foretinib] (partner 0.25 µM)
# Method in brief: as §1
Cell Line,relative viability ([1]; first compound 0.03162 µM),relative viability ([1]; first compound 0.1 µM),relative viability ([1]; first compound 0.3162 µM),relative viability ([1]; first compound 1 µM),relative viability ([2]; first compound 0.03162 µM),relative viability ([2]; first compound 0.1 µM),relative viability ([2]; first compound 0.3162 µM),relative viability ([2]; first compound 1 µM),relative viability ([3]; first compound 0.01 µM),relative viability ([3]; first compound 0.03162 µM),relative viability ([3]; first compound 0.1 µM),relative viability ([3]; first compound 0.3162 µM),relative viability ([3]; first compound 1 µM),relative viability ([4]; first compound 0.03162 µM),relative viability ([4]; first compound 0.1 µM),relative viability ([4]; first compound 0.3162 µM),relative viability ([4]; first compound 1 µM),relative viability ([4]; first compound 0.01 µM)
201T,1.01,1.05,1.14,1.03,0.652,0.515,0.604,0.617,1.25,1.24,1.2,1.22,1.13,1.09,1.07,0.944,0.459,
A549,,,,,,,,,1.16,1.24,1.01,0.971,0.319,1.04,1.01,0.84,0.465,1.14
A-427,0.846,0.919,0.627,0.87,0.696,0.709,,0.792,0.974,0.873,0.837,0.603,0.696,1,0.89,0.707,0.423,0.952
ABC-1,,,,0.779,0.668,0.775,0.622,0.813,,,,,,0.996,0.904,0.652,0.567,1.13
BEN,0.382,0.302,,0.274,0.566,0.761,0.392,0.638,0.0799,0.0753,0.0684,0.0639,0.0589,0.617,0.371,0.3,0.258,0.475
CAL-12T,0.375,0.345,0.228,0.847,0.594,0.617,0.535,0.593,1.36,1.18,1.3,1.08,0.5,1.22,1.14,1.13,0.488,1.16
COR-L23,0.571,0.744,0.632,0.688,,,,,0.988,0.782,0.938,0.923,0.36,0.844,0.993,1.06,0.772,1.01
COR-L 105,0.738,,,0.935,,,,,0.899,0.782,0.886,0.636,0.429,1.24,0.888,1.29,0.995,1.22
Calu-6,,,,,,,,,0.78,0.897,0.752,0.782,0.493,0.936,0.837,0.784,0.593,0.989
ChaGo-K-1,0.555,0.45,0.548,0.551,0.818,0.853,0.738,0.882,0.988,1.4,0.533,0.759,0.713,0.854,0.907,0.8,0.504,0.977
EBC-1,,,,,,,,,0.382,0.33,0.432,0.239,0.203,0.104,0.1,0.116,0.124,0.112
EKVX,0.884,,0.921,0.842,0.689,,0.683,0.6,0.954,0.873,1.01,0.807,0.44,0.764,0.74,0.568,0.581,0.707
EMC-BAC-2,1.08,1.03,1.19,1.22,1.06,1.09,0.851,1.05,1.17,1.05,1.12,1.06,0.436,0.972,0.887,0.745,0.329,0.898
EPLC-272H,0.316,0.0941,0.494,0.228,0.251,0.166,0.156,0.218,1.07,0.901,1.18,0.897,1.04,0.498,0.594,0.41,0.236,0.712
H3255,0.837,,0.824,0.809,0.843,,0.723,0.949,0.411,0.483,0.442,0.428,0.227,1.03,0.811,0.865,0.481,0.772
HARA,0.482,0.6,0.638,0.814,0.0775,0.292,0.168,0.37,1.18,1.26,1.24,1.34,0.354,0.92,0.835,0.715,0.322,0.91
HCC-15,0.203,0.484,0.16,0.315,1.05,1.22,1.17,1.1,0.713,0.689,0.676,0.611,0.374,0.954,0.969,0.895,0.58,1.11
HCC-44,0.915,1.19,,1.07,0.945,0.975,1.2,1.03,0.966,0.982,0.96,0.833,0.383,,,,,
HCC-78,,,,,0.513,0.493,0.65,0.777,0.868,0.766,0.371,0.454,0.278,0.511,0.52,0.425,0.366,0.551
HCC-366,,,,,0.305,0.213,,0.259,1.05,1.14,1.06,1.05,0.287,1.05,0.978,0.878,0.748,0.98
HCC-827,0.654,,0.537,0.669,0.234,,0.198,0.265,1.07,1.06,0.995,0.996,0.651,1.03,0.991,0.855,0.411,1.19
